# Patent publication US20160129034A1, “COMBINATION OF RO5503781, CAPECITABINE AND OXALIPLANTIN FOR CANCER THERAPY” (HOFFMANN-LA ROCHE INC., priority 2013, published 2016)
# Tested on: LoVo cell line
# Assay: LoVo colorectal xenograft in mice: tumor growth inhibition and survival
# Format: in vivo
# Conditions: for % Inhibition (EOS) / % T/C (EOS): end of study; for Mean Tumor Volume: in mm³ (unit assumed)
# Method: The LoVo cell line was selected for implantation in mice as it is has activation of the p53-MDM2 pathway but lacks MDM2 amplification or overexpression, which therefore is felt to be more reflective of clinical reality of the colorectal cancer patient population of interest.
# Compound A and the capecitabine/oxaliplatin formulations were as follows. If not explicitly indicated otherwise, the amounts provided below are concentrations [mg/ml]. Compound A is used at concentrations of 10 mg/ml and 12.5 mg/ml. Capecitabine is used at concentrations of 12.5 mg/ml, 25 mg/ml and 50 mg/ml. Oxaliplatin is dosed at 5 mg/kg. The vehicle solutions for compound A and capecitabine are as follows:
# The following treatment groups were used in the study • 1. Vehicle Control qd×5 po+qd×14 po • 2. Compound A 80 mg/kg qd×5 po • 3. Compound A 100 mg/kg qweekly×3 po • 4. Capecitabine 200 mg/kg qd×14 po • 5. Oxaliplatin 5 mg/kg qweekly ip×2 • 6. Capecitabine 200 mg/kg qd×14po+Oxaliplatin 5 mg/kg qweekly ip×2 • 7. Compound A 80 mg/kg qd×5+Capecitabine 200 mg/kg qd×14 • 8. Compound A 100 mg/kg qweekly×3+Capecitabine 200 mg/kg qd×14 • 9. Compound A 80 mg/kg qd×5+Capecitabine 200 mg/kg qd×14+Oxaliplatin 5 mg/kg qweekly ip×2 • 10. Compound A 100 mg/kg qweekly×3+Capecitabine 200 mg/kg qd×14+Oxaliplatin 5 mg/kg qweekly ip×2
# [1] = Capecitabine 200 mg/kg qdx14 po
# [2] = Oxaliplatin 5 mg/kg qweeklyx2 ip
compound,measurement,setting,value
"CCCCCOC(=O)Nc1nc(=O)n([C@@H]2O[C@H](C)[C@@H](O)[C@H]2O)cc1F [Capecitabine, 5′-deoxy-5-fluoro-N-[(pentyloxy)-carbonyl]-cytidine]",% Increased Life Span,[1],36%
same,% Inhibition (EOS),[1],75%
same,% T/C (EOS),[1],25%
same,Mean Tumor Volume,[1],129.07
"COc1cc(C(=O)O)ccc1NC(=O)[C@@H]1N[C@@H](CC(C)(C)C)[C@](C#N)(c2ccc(Cl)cc2F)[C@H]1c1cccc(Cl)c1F [Cpd. A, 4-{[(2R,3S,4R,5S)-4-(4-Chloro-2-fluoro-phenyl)-3-(3-chloro-2-fluoro-phenyl)-4-cyano-5-(2,2-dimethyl-propyl)-pyrrolidine-2-carbonyl]-amino}-3-methoxy-benzoic acid]",% Increased Life Span,Cpd A 80 mg/kg qdx5 po,21%
same,% Inhibition (EOS),Cpd A 80 mg/kg qdx5 po,64%
same,% T/C (EOS),Cpd A 80 mg/kg qdx5 po,38%
same,Mean Tumor Volume,Cpd A 80 mg/kg qdx5 po,130.73
same,% Increased Life Span,Cpd A 100 mg/kg qwklyx3 po,21%
same,% Inhibition (EOS),Cpd A 100 mg/kg qwklyx3 po,60%
same,% T/C (EOS),Cpd A 100 mg/kg qwklyx3 po,40%
same,Mean Tumor Volume,Cpd A 100 mg/kg qwklyx3 po,130.23
O=C(O)C(=O)O.[NH-][C@@H]1CCCC[C@H]1[NH-].[Pt+2] [Oxaliplatin],% Increased Life Span,[2],0%
same,% Inhibition (EOS),[2],23%
same,% T/C (EOS),[2],77%
same,Mean Tumor Volume,[2],130.60
